Laboratory results from ChEMBL document CHEMBL1158321, “In vitro anti-HIV activity of biflavonoids isolated from Rhus succedanea and Garcinia multiflora” (J Nat Prod, 1997).
pEC50, pIC50: −log10 of the molar value.

Columns and labels:
[1] = biological target: Human immunodeficiency virus type 1 reverse transcriptase (Human immunodeficiency virus 1) (UniProt Q72547); assay: Inhibition of HIV1 recombinant reverse transcriptase p66/p51 expressed in Escherichia coli at 200 ug/mL
[2] = biological target: Human immunodeficiency virus type 1 reverse transcriptase (Human immunodeficiency virus 1, UniProt Q72547); assay: (§1) Inhibition of HIV1 recombinant reverse transcriptase p66/p51 expressed in Escherichia coli
[3] = system: PBMC; assay: Cytotoxicity against uninfected PHA-stimulated human PBMC assessed as thymidine incorporation after 24 hrs […]; format: cell-based
[4] = Selectivity index, ratio of IC50 for human PBMC to EC50 for HIV1 LAV-1
[5] = system: Human immunodeficiency virus 1; assay: Antiviral activity against HIV1 LAV-1 in PHA-stimulated human PBMC after 6 days; format: functional, organism-based; details: Human immunodeficiency virus 1, LAV-1, 144 h
[6] = biological target: Human immunodeficiency virus type 1 reverse transcriptase (Human immunodeficiency virus 1) (UniProt Q72547); assay: as §1; set-up: concentration or dose not given beside the values; details: concentration not given here

Structure (SMILES) | inhibition [1] | pIC50 [2] | pIC50 [3] | Selectivity Index [4] | pEC50 [5] | inhibition [6]
O=C1C[C@@H](c2ccc(O)c(O)c2)Oc2c1c(O)cc(O)c2[C@H]1C(=O)c2c(O)cc(O)cc2O[C@@H]1c1ccc(O)cc1 | 96% | 3.77 | – | – | – | –
O=C1C[C@@H](c2ccc(O)cc2)Oc2c1c(O)cc(O)c2[C@H]1C(=O)c2c(O)cc(O)cc2O[C@@H]1c1ccc(O)cc1 | 86% | 3.63 | 4.06 | 2.3 | 4.42 | –
COc1ccc(-c2cc(=O)c3c(OC)cc(OC)c([C@@H]4C(=O)c5c(OC)cc(OC)cc5O[C@H]4c4ccc(OC)cc4)c3o2)cc1 | 0% | – | – | – | – | < 30%
COc1ccc([C@@H]2CC(=O)c3c(OC)cc(OC)c([C@H]4C(=O)c5c(OC)cc(OC)cc5O[C@@H]4c4ccc(OC)cc4)c3O2)cc1 | 0% | – | – | – | – | –
COc1ccc([C@@H]2Oc3cc(OC)cc(OC)c3C(=O)[C@H]2c2c(OC)cc(OC)c3c(=O)cc(-c4ccc(OC)c(OC)c4)oc23)cc1 | 0% | – | – | – | – | < 30%
Cc1ccc([C@@H]2CC(=O)c3c(cc(O)c(-c4c(O)cc(O)c5c4O[C@H](c4ccc(O)cc4)CC5=O)c3O)O2)cc1 | 14.1% | – | – | – | – | < 30%
O=C1C[C@@H](c2ccc(O)cc2)Oc2c1c(O)cc(O[C@@H]1O[C@H](CO)[C@@H](O)[C@H](O)[C@H]1O)c2[C@H]1C(=O)c2c(O)cc(O)cc2O[C@@H]1c1ccc(O)cc1 | 1.5% | – | – | – | – | –
O=C1C[C@@H](c2ccc(O)cc2)Oc2cc(O)c(-c3c(O)cc4c(c3O)C(=O)C[C@@H](c3ccc(O)cc3)O4)c(O)c21 | 22.1% | – | – | – | – | < 30%
O=C1C[C@@H](c2ccc(O)cc2)Oc2cc(O)cc(O)c21 | 34.9% | – | – | – | – | 30%
O=C1c2c(O)cc(O)cc2O[C@@H](c2ccc(O)cc2)[C@@H]1c1c(O)cc(O)c2c(=O)cc(-c3ccc(O)cc3)oc12 | 45.3% | – | – | – | – | 30%
O=c1cc(-c2ccc(O)c(-c3c(O)cc(O)c4c(=O)cc(-c5ccc(O)cc5)oc34)c2)oc2cc(O)cc(O)c12 [AMENTOFLAVONE] | 97.3% | 3.92 | 4.46 | <1 | 4.03 | –
O=c1cc(-c2ccc(O)cc2)oc2cc(O)cc(O)c12 [APIGENIN] | 72% | 3.35 | – | – | – | –
O=c1cc(-c2ccc(Oc3c(O)cc4oc(-c5ccc(O)cc5)cc(=O)c4c3O)cc2)oc2cc(O)cc(O)c12 [HINOKIFLAVONE] | 89.9% | 4.21 | 5.05 | 2.2 | 5.39 | –
O=C1c2c(O)cc(O)cc2O[C@H](c2ccc(O)cc2)[C@H]1c1c(O)cc(O)c2c(=O)cc(-c3ccc(O)c(O)c3)oc12 [MORELLOFLAVONE] | 99.2% | 3.94 | 4.09 | 12 | 5.16 | –
O=c1cc(-c2ccc(O)c(-c3c(O)cc4oc(-c5ccc(O)cc5)cc(=O)c4c3O)c2)oc2cc(O)cc(O)c12 [ROBUSTAFLAVONE] | 91.4% | 4.19 | 4.11 | <1 | < 4.00 | –
Cc1cn([C@H]2C[C@H](N=[N+]=[N-])[C@@H](CO)O2)c(=O)[nH]c1=O [ZIDOVUDINE] | – | – | < 4.00 | >10 | – | –
